Experimental data taken from US9890175B2, “Taxane compound, and preparation method and use thereof” (JIANGSU TASLY DIYI PHARMACEUTICAL CO., LTD., priority 2013, dated 2018).
Where two headings read alike, the source gives them in different places.

Key:
A2780 ovarian cancer = assay: MTT proliferation inhibition, A2780; format: cell-based; conditions: Homo sapiens, A2780, read-out: Proliferation inhibition rate, A2780 Ovarian cancer
Source text: (§1) 1. Cytotoxicity Assay Using Human Tumor Cell Lines
(§2) Paclitaxel was used as the positive drug.

Hela cervical cancer = assay: MTT proliferation inhibition, HeLa; format: cell-based; conditions: Homo sapiens, read-out: Proliferation inhibition rate, HeLa Uterin cancer
Source text: as §1, §2

[1] = system: MCF-7 breast cancer cells; assay: MTT proliferation inhibition, MCF-7; format: cell-based; conditions: Homo sapiens, MCF7, read-out: Proliferation inhibition rate, MCF-7 Breast cancer
Source text: as §1, §2

[2] = system: NCI-H460 non-small cell lung cancer; assay: MTT proliferation inhibition, NCI-H460; format: cell-based; conditions: Homo sapiens, NCI-H460, read-out: Proliferation inhibition rate, NCI-H460 Non-small cell lung cancer
Source text: as §1, §2

A375 melanoma = assay: MTT proliferation inhibition, A375; format: cell-based; conditions: Homo sapiens, A-375, read-out: Proliferation inhibition rate, A375 Melanoma
Source text: as §1, §2

HT-29 colon cancer = assay: MTT proliferation inhibition, HT-29; format: cell-based; conditions: Homo sapiens, HT-29, read-out: Proliferation inhibition rate, HT29 Colon cancer
Source text: as §1, §2

HL-60 leukemia = assay: MTT proliferation inhibition, HL-60; format: cell-based; conditions: Homo sapiens, HL-60, read-out: Proliferation inhibition rate, HL60 Leukemia
Source text: as §1, §2

Du145 prostate cancer = assay: MTT proliferation inhibition, Du145; format: cell-based; conditions: Homo sapiens, DU-145, read-out: Proliferation inhibition rate, DU145 Prostate cancer
Source text: as §1, §2

[3] = system: MDA-MB-436 breast cancer cells; assay: MTT proliferation inhibition, MDA-MB-436; format: cell-based; conditions: Homo sapiens, MDA-MB-436, read-out: Proliferation inhibition rate, MDA-MB-436 Breast cancer
Source text: as §1, §2

LN-18 = assay: MTT proliferation inhibition, LN-18; format: cell-based; conditions: Homo sapiens, LN-18, read-out: Proliferation inhibition rate, LN-18 Gastric canser
Source text: as §1, §2

BGC-823 gastric cancer = assay: MTT proliferation inhibition, BGC-823; format: cell-based; conditions: Homo sapiens, BGC-823, read-out: Proliferation inhibition rate, BGC-823 Gastric cancer
Source text: as §1, §2

[4] = system: A549 non-small cell lung cancer; assay: MTT proliferation inhibition, A549; format: cell-based; conditions: Homo sapiens, A549, read-out: Proliferation inhibition rate, A549 Non-small cell lung cancer
Source text: as §1, §2

B16 melanoma = assay: MTT proliferation inhibition, B16; format: cell-based; conditions: B16, read-out: Proliferation inhibition rate, B16 Melanoma
Source text: as §1, §2

HCT 116 colon cancer = assay: MTT proliferation inhibition, HCT 116; format: cell-based; conditions: Homo sapiens, HCT-116, read-out: Proliferation inhibition rate, HCT 116 Colon cancer
Source text: as §1, §2

K562 leukemia = assay: MTT proliferation inhibition, K562; format: cell-based; conditions: Homo sapiens, K562, read-out: Proliferation inhibition rate, K562 Leukemia
Source text: as §1, §2

LNCaP prostate cancer = assay: MTT proliferation inhibition, LNCaP; format: cell-based; conditions: Homo sapiens, read-out: Proliferation inhibition rate, LNCaP Prostate cancer
Source text: as §1, §2

[5] = system: breast cancer cell line MCF-7; assay: IC50 on breast cancer cell line MCF-7; format: cell-based; conditions: Homo sapiens
Description: From the activity evaluation data of the above-mentioned preliminary screen, it can be seen that the series of taxanes derivatives synthesized in the present invention have activity. Afterward, the compounds are investigated to examine their IC50 values on breast cancer cell line MCF-7. […] Experiments for each compound were independently repeated for three times and multiple holes were used in each experiment. The exposure time of drugs was 72 hours.

[6] = Caco-2 cell monolayer membrane transport assay (Papp and recovery); format: in vitro ADME; conditions: human
Source text: Caco-2 Cell Monolayer Membrane Transport Assay
(§3) Human-derived colorectal adenocarcinoma cell line Caco-2 cell monolayer model was used to study the bidirectional transport of the target compounds from the apical (AP) side to the basolateral (BL) side and from BL side to AP side. HPLC was used for quantitative analysis to calculate transport parameters, apparent permeability coefficient (Papp) and the efflux ratio.

[7] = Caco-2 bidirectional transport, efflux ratio; conditions: human, Caco-2
Source text: as §3

Caco-2 cell monolayer [8] = assay: Caco-2 bidirectional transport, efflux ratio; conditions: Caco-2 cell line (21 days)
Source text: as §3

Caco-2 cell monolayer [9] = conditions: human
Source text: as §3

[10] = reported value; cited from earlier work
[11] = MCF7, 72 h, read-out: MCF-7 (IC50, nM)
[12] = Caco-2, Caco-2, A-B, Mean, read-out: Recovery rate in mass, Mean
[13] = Caco-2, Caco-2, A-B, Sample-01, read-out: Papp A-B, Sample-01
[14] = Caco-2, Caco-2, A-B, Sample-01, read-out: Recovery rate in mass, Sample-01
[15] = Caco-2, Caco-2, A-B, Sample-02, read-out: Papp A-B, Sample-02
[16] = Caco-2, Caco-2, A-B, Sample-02, read-out: Recovery rate in mass, Sample-02
[17] = Caco-2, Caco-2, A-B, Mean, read-out: Papp A-B, Mean

SMILES	inhibition at 1 µM (A2780 ovarian cancer)	inhibition at 1 µM (Hela cervical cancer)	inhibition at 1 µM [1]	inhibition at 1 µM [2]	inhibition at 1 µM (A375 melanoma)	inhibition at 1 µM (HT-29 colon cancer)	inhibition at 1 µM (HL-60 leukemia)	inhibition at 1 µM (Du145 prostate cancer)	inhibition at 1 µM [3]	inhibition at 1 µM (LN-18)	inhibition at 1 µM (BGC-823 gastric cancer)	inhibition at 1 µM [4]	inhibition at 1 µM (B16 melanoma)	inhibition at 1 µM (HCT 116 colon cancer)	inhibition at 1 µM (K562 leukemia)	inhibition at 1 µM (LNCaP prostate cancer)	IC50 [5, 11]	recovery [6, 12]	Papp A→B [6, 13]	recovery [6, 14]	further results
COC(=O)O[C@H]1C[C@H]2OC[C@@]2(OC(C)=O)[C@H]2[C@H](OC(=O)c3ccccc3)[C@]34OC(=O)O[C@H]3[C@H](OC(=O)[C@H](O)[C@@H](NC(=O)OC(C)(C)C)c3ccccc3)C(C)=C([C@@H](OC)C(=O)[C@]12C)C4(C)C [PCMI-17]	96.6%	101%	93.1%	89.2%	94.9%	88.5%	97.3%	90.7%	85.1%	95.9%	95.1%	80.3%	82.3%	69.6%	96.5%	86.7%	3.84 ± 0.08 nM	88.7%	4.7 ×10⁻⁶ cm/s	104%	Papp A→B [6, 15]: 3.16 ×10⁻⁶ cm/s; recovery [6, 16]: 73.9%; Papp A→B [7]: 2.4 ×10⁻⁶ cm/s; Papp B→A [7]: 5.74 ×10⁻⁶ cm/s; efflux ratio [7]: 2.39
COC(=O)O[C@H]1C[C@H]2OC[C@@]2(OC(C)=O)[C@H]2[C@H](OC(=O)c3ccccc3)[C@]34OC(=O)O[C@H]3[C@H](OC(=O)[C@H](O)[C@@H](NC(=O)N(C)C)c3ccccc3)C(C)=C([C@@H](OC)C(=O)[C@]12C)C4(C)C [PCMI-19]	94.2%	99.6%	89.7%	87.3%	95.2%	87.2%	96.9%	90%	83.6%	93.9%	93.3%	80.2%	83.7%	67.3%	92.7%	87.2%	6.58 ± 0.02 nM	74.5%	3.78 ×10⁻⁶ cm/s	78.2%	Papp A→B [6, 17]: 3.92 ×10⁻⁶ cm/s; Papp A→B [6, 15]: 4.05 ×10⁻⁶ cm/s; recovery [6, 16]: 70.7%; Papp A→B [7]: 2.79 ×10⁻⁶ cm/s; Papp B→A [7]: 21.3 ×10⁻⁶ cm/s; efflux ratio [7]: 7.65
COC(=O)O[C@H]1C[C@H]2OC[C@@]2(OC(C)=O)[C@H]2[C@H](OC(=O)c3ccccc3)[C@]34OC(=O)O[C@H]3[C@H](OC(=O)[C@H](O)[C@H](CC(C)C)NC(=O)OC(C)(C)C)C(C)=C([C@@H](OC)C(=O)[C@]12C)C4(C)C [PCMI-20]	95.5%	101%	85.4%	86.8%	93.4%	87.2%	96.9%	88.6%	81.1%	94.3%	95%	80.4%	81.6%	68.6%	93.8%	86%	2.94 ± 0.04 nM	86.5%	1.08 ×10⁻⁶ cm/s	89.8%	Papp A→B [6, 17]: 0.92 ×10⁻⁶ cm/s; Papp A→B [6, 15]: 0.75 ×10⁻⁶ cm/s; recovery [6, 16]: 83.3%; Papp A→B [7]: 0.92 ×10⁻⁶ cm/s; Papp B-A (Caco-2 cell monolayer [8]; B-A): 7.16 10^−6 cm/s; efflux ratio (Caco-2 cell monolayer [8]; Papp B-A/Papp A-B): 7.81
CC(=O)O[C@H]1C(=O)[C@@]2(C)[C@H]([C@H](OC(=O)c3ccccc3)[C@]3(O)C[C@H](OC(=O)[C@H](O)[C@@H](NC(=O)c4ccccc4)c4ccccc4)C(C)=C1C3(C)C)[C@]1(OC(C)=O)CO[C@@H]1C[C@@H]2O [Paclitaxel, reference compound]																					IC50 ([5]; MCF7, 72 hours exposure, mean±SD of three experiments, read-out: MCF-7 (IC50)): 7.05 nM; Papp A→B ([6]; Caco-2, Papp A-B, Mean): 0.97 ×10⁻⁶ cm/s; Papp A→B ([6]; Caco-2, Papp A-B, Sample-01): 1.02 ×10⁻⁶ cm/s; Papp A→B ([6]; Caco-2, Papp A-B, Sample-02): 0.93 ×10⁻⁶ cm/s; recovery ([6]; Caco-2, Recovery rate in mass, Mean): 101%; recovery ([6]; Caco-2, Recovery rate in mass, Sample-01): 94.6%; recovery ([6]; Caco-2, Recovery rate in mass, Sample-02): 107%; Papp A-B (Caco-2 cell monolayer [9]): 0.97 10^−6 cm/s; Papp B-A (Caco-2 cell monolayer [9]): 33.39 10^−6 cm/s; efflux ratio (Caco-2 cell monolayer [9]): 34.38; reported absolute oral bioavailability [10]: less than 6%
